The values that follow come from patent US12343428B2, “Compositions and methods for cancer treatment” (University of Virginia Patent Foundation, priority 2017, dated 2025).

One test relates to LNCaP and C4-2 cells. Nature of the test: Synergy studies of CNL with abiraterone acetate or enzalutamide (MTS, isobolograms). It counts as cell-based, human. To be noted: two AR positive cell lines; drug alone. As for the experimental part:
Viability was assayed using MTS assay (Promega […] 96® AQueous Non-Radioactive Cell Proliferation Assay) according to manufacturer instructions. […] Results were normalized to the respective negative controls of each experiment.

In the next test the test system is LNCaP cells. As to the kind of experiment: LC-MS/MS lipid levels in LNCaP cells. It counts as cell-based, human. To be noted: 10 μM abiraterone acetate alone. As for the experimental part: Cells were plated in 6-well plates for 48 hours before being exposed to CNL 10 μM and/or Abiraterone Acetate 10 μM, as well as respective controls (Ghost liposome and Ethanol respectively). Cells were collected after 1 hour, 4 hours, 12 hours, 24 hours, and 48 hours of exposure. Cells were lysed with 0.1× PBS and protein quantification was determined using a DC™ brand Protein Assay (Bio-Rad Laboratories, Inc., Hercules, California, United States of America). The Metabolomics core at University of Virginia performed lipid extraction, LC-MS/MS injections, and data analysis.

For test [1], the system named is UNC-10 HNSCC cells. As to the kind of experiment: MTS cell viability assay, UNC-10 HNSCC cells. It counts as cell-based, human. As for the experimental part:
(§1) To evaluate cell viability in HNSCC cell lines after drug exposure, 5,000 cells were plated in 96-well plates. After 16-30 hours, cells were exposed to each drug alone or in combination, and viability was measured every 24 hours for a total of 48 hours. Viability was assayed using a […] 96® brand AQueous Non-Radioactive Cell Proliferation MTS Assay (Promega Corporation) according to manufacturer's instructions. A minimum of three biologically independent experiments were performed. Results were normalized to the respective negative controls of each experiment.
(§2) To evaluate cell viability of HNSCC cell lines after exposure to various amounts of Erlotinib, 5,000 UNC-10 or SCC-25 cells were plated in 96-well plates. After 16-30 hours, cells were exposed to each Erlotinib at 0 μM, 0.5 μM, 1 μM, 5 μM, 10 μM, and 25 μM, and viability was measured at 24 and 48 hours. Viability was assayed using MTS assay (Promega […] 96® AQueous Non-Radioactive Cell Proliferation Assay) according to manufacturer instructions. A minimum of three biologically independent experiments were performed. Results were normalized to the respective negative controls of each experiment.
(§3) To evaluate cell viability in HNSCC cell lines after exposure to CNLs, similar experiments were performed with five different concentrations of CNLs alone: 0 μM, 2.5 μM, 5 μM, 10 μM, 25 μM. 5,000 UNC-10 or SCC-25 cells were plated in 96-well plates. After 16-30 hours, cells were exposed to each drug alone or in combination, and viability was measured every 24 hours for a total of 48 hours. Viability was assayed using MTS assay (Promega […] 96® AQueous Non-Radioactive Cell Proliferation Assay) according to manufacturer instructions. A minimum of three biologically independent experiments were performed.
(§4) To evaluate cell viability in HNSCC cell lines after exposure to CNLs plus an EGFR inhibitor, 5,000 cells were plated in 96-well plates. After 16-30 hours, cells were exposed to six different concentrations of Erlotinib (0 μM, 0.5 μM, 1 μM, 5 μM, 10 μM, & 25 μM) combined with five different concentrations of CNLs (0 μM, 2.5 μM, 5 μM, 10 μM, & 25 μM), and viability was measured at 24 hours and 48 hours. Viability was assayed using MTS assay (Promega […] 96® AQueous Non-Radioactive Cell Proliferation Assay) according to manufacturer instructions. A minimum of three biologically independent experiments were performed. Results were normalized to the respective negative controls of each experiment.

The test system of another test is SCC-25 HNSCC cells. As to the kind of experiment: MTS cell viability assay, SCC-25 HNSCC cells. It counts as cell-based, human. The settings on record: for viability at 25 µM: Homo sapiens, 48 hours. As for the experimental part:
as §1, §2, §3, §4

The subject of another test is UNC-10 cells. As to the kind of experiment: Flow cytometry viability dye assay, UNC-10 cells. The test is classed as cell-based. To be noted: Homo sapiens, 48 hours, 25 μM Erlotinib. As for the experimental part:
(§5) To evaluate cell death in HNSCC cell lines exposed to CNL and/or Erlotinib or Gefitinib, a flow cytometry assay was performed. Cells were plated in 24-well plates for 16-30 hours before being pre-treated for one hour with Erlotinib or Gefitinib (0 μM, 10 μM, 25 μM) and then with CNL (0 μM, 2.5 μM, 5 μM). After 24 or 48 hours, cells were stained with a Fixable Viability Dye EFLUOR™ 780 brand a viability dye (ThermoFischer Scientific Inc.)
(§6) according to the manufacturer's recommendations. The use of this dye allowed us to differentiate between two cell populations: dead or live cells. Flow cytometry controls (alive/stained, alive/non-stained, & dead/stained) were used to allow for a more rigorous discrimination between populations. Results were normalized to the respective negative controls of each experiment. Data analysis was performed using FlowJo Software.
(§7) In order to evaluate cell death in HNSCC cell lines exposed to CNL and/or Erlotinib or Gefitinib, flow cytometry assays were also performed. Cells were plated in 24-well plates for 16-30 hours before being pre-treated for one hour with Erlotinib or Gefitinib (0 μM, 10 μM, 25 μM) and then with CNL (0 μM, 2.5 μM, 5 μM). After 24 or 48 hours, cells were stained with a viability dye (Fixable Viability Dye EFLUOR™ 780, ThermoFischer Scientific) according to the manufacturer recommendations. […]

The next test has as its system SCC-25 cells. Nature of the test: Flow cytometry viability dye assay, SCC-25 cells. The test is classed as cell-based. To be noted: Homo sapiens, 48 hours, 25 μM Erlotinib. On the procedure:
as §5, §6, §7

A further test deals with UNC-7 HNSCC cells. As to the kind of experiment: LC-MS/MS sphingolipid profile, UNC-7. It counts as cell-based, human. To be noted: 25 μM Erlotinib, 0, 3, 6 hours. As for the experimental part:
(§8) To determine Erlotinib's effect on the sphingolipid profile in HNSCC, 500,000 cells of two different cell lines (UNC-7 & UNC-10) were plated and grown in cell culture. When these cells reached about 70% confluence, they were treated with 25 μM Erlotinib. After addition of the Erlotinib, cells were collected immediately, three hours later, or six hours later. Collected cells were lysed using 0.1× PBS and protein quantification was determined using a Pierce BCA Protein Assay (Thermo Fisher Scientific) according to the manufacturer's instructions. Cell lysates containing 250 μg of protein were then used for lipid extractions. […] The sphingolipids were then analyzed using LC-MS/MS.

The subject of test [2] is UNC-10 HNSCC cells. Nature of the test: LC-MS/MS sphingolipid profile, UNC-10. It counts as cell-based, human. The settings on record: 25 μM Erlotinib, 0, 3, 6 hours. As for the experimental part:
as §8

Test [3] relates to eight different HNSCC cell lines. As to the kind of experiment: MTS cell viability assays in eight HNSCC cell lines. To be noted: any of the cell lines, concentrations and time points. The test is classed as cell-based, human. On the procedure: Drugs concentrations. […] For synergistic experiments: abiraterone acetate (Selleckchem, Houston, Texas, United States of America) was used at 0.5 μM, 1 μM, 5 μM, 10 μM, 20 μM; enzalutamide (Selleckchem) at 1 μM, 5 μM, 10 μM, 20 μM, 30 μM; and CNL at 5 μM, 10 μM, 20 μM, and 30 μM. During synergy studies, each concentration of either abiraterone acetate or enzalutamide was combined with either Ghost (negative) control (nanoliposomes without the C6 ceramide—active agent) or each concentration of CNL. Respective negative controls for abiraterone acetate and enzalutamide were also used. Synergy experiments were performed in LNCaP and C4-2 cells. For synergistic studies using the HNSCC cell lines, all eight cell lines were pre-treated for one hour with either Erlotinib (Selleckchem) or Gefitinib (Sigma-Aldrich Corporation, St. Louis, Missouri, United States of America) before adding CNL. Six different concentrations of Erlotinib and Gefitinib (0 μM, 0.5 μM, 1 μM, 5 μM, 10 μM, and 25 μM) were tested against five different CNL concentrations (0 μM, 2.5 μM, 5 μM, 10 μM, and 25 μM). […]
To evaluate cell viability in HNSCC cell lines after drug exposure, 5,000 cells were plated in 96-well plates. After 16-30 hours, cells were exposed to each drug alone or in combination, and viability was measured every 24 hours for a total of 48 hours. […]

`CC(=O)O[C@H]1CC[C@@]2(C)C(=CC[C@@H]3[C@@H]2CC[C@]2(C)C(c4cccnc4)=CC[C@@H]32)C1` [abiraterone acetate]: the “reduction of viability as single treatment” value in the test with LNCaP and C4-2 cells is reported as “effective in reducing the viabilities of PCa cells”. For the same compound, in the test on LNCaP cells, the C6 ceramide levels entry is on record as “not changed” and the total ceramide levels entry was “not changed”.
Take `COc1cc2ncnc(Nc3ccc(F)c(Cl)c3)c2cc1OCCCN1CCOCC1` [Gefitinib]: the effect on viability result in the test on UNC-10 HNSCC cells [1] (Gefitinib at 5 μM or less, 24 hours or 48 hours) is given as “little effect”; with UNC-10 HNSCC cells [1] (Gefitinib higher concentrations (10, 25 μM), particularly at 24 hours) it was “reduced viability”. Moreover, the viability at 5 µM with UNC-10 HNSCC cells [1] (Homo sapiens, 48 hours, 5 μM Gefitinib) stood at 97%. Further, the “effect on viability compared with UNC-10” value with SCC-25 HNSCC cells (Gefitinib alone, 24 hours and 48 hours) is reported as “less striking”. Besides, in the test on SCC-25 HNSCC cells (25 μM Gefitinib), the viability at 25 µM amounted to 81%.
In the case of `CNC(=O)c1ccc(N2C(=S)N(c3ccc(C#N)c(C(F)(F)F)c3)C(=O)C2(C)C)cc1F` [Enzalutamide], the “reduction of viability as single treatment” value in the test with LNCaP and C4-2 cells was “not as effective as a single treatment”.
For the compound `C#Cc1cccc(Nc2ncnc3cc(OCCOC)c(OCCOC)cc23)c1` [Erlotinib], the “effect on cell viability” value in the test with UNC-10 HNSCC cells [1] (Erlotinib alone 0.5-25 μM, 24 or 48 hours) is “little effect”; in the test with SCC-25 HNSCC cells (Erlotinib alone, higher concentrations, 24 or 48 hours), “not statistically significant”. Also, the viability at 25 µM in the test with UNC-10 HNSCC cells [1] (Homo sapiens, 48 hours, 25 μM Erlotinib) was determined as 90%; in the test with SCC-25 HNSCC cells (25 μM Erlotinib), 89%; with UNC-10 cells, 91%; in the test on SCC-25 cells it was 89%. The sphingolipid levels entry in the test with UNC-7 HNSCC cells and in the test with UNC-10 HNSCC cells [2] was “able to alter sphingolipid levels” each time. Further, the “effect of Erlotinib alone on cell viability” value in test [3] is recorded as “failing to produce any meaningful effects”.
